Measurements reported in ChEMBL document CHEMBL1125092, “Nonneurotoxic tetralin and indan analogues of 3,4-(methylenedioxy)amphetamine (MDA)” (J Med Chem, 1990).
Where “and” joins values, the source holds several entries; their conditions need not be identical. Equal values may be shown once.

What was measured:
Format in all cases: functional
Rattus norvegicus [1] = assay: Hallucinogenic property was determined in groups of LSD trained rats and percentage of animals disrupted was reported at a dose 0.186 (umol/kg),(number of animals = 8)
Rattus norvegicus [2] = assay: Hallucinogenic property was determined in groups of LSD trained rats and percentage of animals disrupted was reported at 0.023 (umol/kg) (number of animals = 8)
Rattus norvegicus [3] = assay: Hallucinogenic property was determined in groups of LSD trained rats and percentage of animals disrupted was reported at a dose 0.012 (umol/kg),(number of animals = 8)
Rattus norvegicus [4] = assay: Hallucinogenic property was determined in groups of LSD trained rats and percentage of animals disrupted was reported at a dose 0.046(umol/kg) (number of animals = 9)
Rattus norvegicus [5] = assay: Hallucinogenic property was determined in groups of LSD trained rats and percentage of animals disrupted was reported at a dose 0.093(umol/kg) (number of animals = 8)
Rattus norvegicus [6] = organism: Rattus norvegicus; assay: Inhibitory activity was determined LSD trained rats
Rattus norvegicus [7] = assay: Tested for stimulus generation in rats trained to discriminate LSD from saline at a dose 0.046(umol/kg) (number of animals = 9)
Rattus norvegicus [8] = assay: Tested for stimulus generation in rats trained to discriminate LSD from saline at a dose 0.093(umol/kg) (number of animals = 8)
Rattus norvegicus [9] = assay: Tested for stimulus generation in rats trained to discriminate LSD from saline at a dose 0.186 (umol/kg),(number of animals = 8)
Rattus norvegicus [10] = assay: Tested for stimulus generation in rats trained to discriminate LSD from saline at a dose 0.012 (umol/kg),(number of animals = 8)
Rattus norvegicus [11] = assay: Tested for stimulus generation in rats trained to discriminate LSD from saline at a dose 0.023 (umol/kg) (number of animals = 8)
Rattus norvegicus [12] = assay: Hallucinogenic property was determined in groups of LSD trained rats and percentage of animals disrupted was reported at a dose 4.10 (umol/kg),(number of animals = 10)
Rattus norvegicus [13] = assay: Percentage of animals disrupted in groups of MDMA trained rats at a dose of 4.10 (umol/kg),(number of animals = 8)
Rattus norvegicus [14] = assay: Percentage of animals disrupted in groups of MDMA trained rats at a dose of 8.21 (umol/kg),(number of animals = 9)
Rattus norvegicus [15] = assay: Percentage of animals disrupted was determined in groups of LSD trained rat at a dose of 18.46 (umol/kg),(no. of animals=9)
Rattus norvegicus [16] = assay: Percentage of animals disrupted was determined in groups of LSD trained rat at a dose of 6.15 (uM/kg), (no.of animals = 11)
Rattus norvegicus [17] = assay: Percentage of animals disrupted was determined in groups of LSD trained rat at a dose of 8.21 (umol/kg),(no. of animals = 8)
Rattus norvegicus [18] = assay: Percentage of animals disrupted in groups of MDMA trained rats at a dose of 12.31 (umol/kg),(number of animals = 8)
Rattus norvegicus [19] = assay: Percentage of animals disrupted in groups of MDMA trained rats at a dose of 16.41 (umol/kg),(number of animals = 11)
Rattus norvegicus [20] = assay: Percentage of animals disrupted in groups of MDMA trained rats at a dose of 17.44 (umol/kg),(number of animals = 11)
Rattus norvegicus [21] = assay: Percentage of animals disrupted in groups of MDMA trained rats at a dose of 20.51 (umol/kg),(number of animals = 7)
Rattus norvegicus [22] = assay: Tested for stimulus generation in rats trained to discriminate LSD from saline at a dose 16.41(.umol/kg),(number of animals = 11)
Rattus norvegicus [23] = assay: Tested for stimulus generation in rats trained to discriminate LSD from saline at 4.10 (umol/kg),(number of animals = 10)
Rattus norvegicus [24] = assay: Tested for stimulus generation in rats trained to discriminate LSD from saline at a 18.46 (umol/kg),(number of animals = 9)
Rattus norvegicus [25] = assay: Tested for stimulus generation in rats trained to discriminate +/-MDMA from saline at 8.21 (umol/kg),(number of animals = 9)
Rattus norvegicus [26] = assay: Tested for stimulus generation in rats trained to discriminate LSD from saline at a dose 6.15 (umol/kg),(number of animals = 11)
Rattus norvegicus [27] = assay: Tested for stimulus generation in rats trained to discriminate LSD from saline at a dose 8.21 (umol/kg),(number of animals = 8)
Rattus norvegicus [28] = assay: Tested for stimulus generation in rats trained to discriminate +/-MDMA from saline at 12.31 (umol/kg),(number of animals = 8)
Rattus norvegicus [29] = assay: Tested for stimulus generation in rats trained to discriminate +/-MDMA from saline at 16.41(.umol/kg),(number of animals = 11)
Rattus norvegicus [30] = assay: Tested for stimulus generation in rats trained to discriminate +/-MDMA from saline at 4.10 (umol/kg),(number of animals = 8)
Rattus norvegicus [31] = assay: Tested for stimulus generation in rats trained to discriminate +/-MDMA from saline at 17.44i (umol/kg),(number of animals = 11)
Rattus norvegicus [32] = assay: Percentage of animals disrupted was determined in groups of LSD trained rat at a dose of 16.41 (umol/kg),(no. of animals=11)

With `CCN(CC)C(=O)[C@@H]1C=C2c3cccc4[nH]cc(c34)C[C@H]2N(C)C1` [LYSERGIDE] the D (Rattus norvegicus [1]) was 0%, the D (Rattus norvegicus [2]) was 0% and the D (Rattus norvegicus [3]) was 0%. For the same compound, the D (Rattus norvegicus [4]) was 0%, the D (Rattus norvegicus [5]) was 0% and the ED50 (Rattus norvegicus [6]) was 0.048 µM/kg and 0.021 µM/kg. It also gave an SDL (Rattus norvegicus [7]) of 44%, an SDL (Rattus norvegicus [8]) of 88% and an SDL (Rattus norvegicus [9]) of 100%. It also gave an SDL (Rattus norvegicus [10]) of 13% and an SDL (Rattus norvegicus [11]) of 0%.

`COc1cc(C)c(OC)c2c1CC(N)C2` (configuration not stated) gave a D (Rattus norvegicus [12]) of 0%, a D (Rattus norvegicus [13]) of 0% and a D (Rattus norvegicus [14]) of 11%. The D (Rattus norvegicus [15]) was 0%, the D (Rattus norvegicus [16]) was 27% and the D (Rattus norvegicus [17]) was 0%. For the same compound, the D (Rattus norvegicus [18]) was 0%, the D (Rattus norvegicus [19]) was 27% and the D (Rattus norvegicus [20]) was 27%. It also gave a D (Rattus norvegicus [21]) of 71%, an SDL (Rattus norvegicus [22]) of 63% and an SDL (Rattus norvegicus [23]) of 20%. For the same compound, the SDL (Rattus norvegicus [24]) was 89%, the SDL (Rattus norvegicus [25]) was 38% and the SDL (Rattus norvegicus [26]) was 38%. It also gave an SDL (Rattus norvegicus [27]) of 38%, an SDL (Rattus norvegicus [28]) of 25% and an SDL (Rattus norvegicus [29]) of 75%. For the same compound, the SDL (Rattus norvegicus [30]) was 13%, the SDL (Rattus norvegicus [31]) was 50% and the D (Rattus norvegicus [32]) was 27%.
